# pIC50: −log10 of the molar value. Like-named read-outs stand apart in the source and are kept apart here.
# Key:
# Swiss-Webster male mice [1] = experiment: Mouse Activity and Screen Test (MAST): screen test failure; assay type: in vivo; settings: 1 hour prior to testing
# Description: Nine unfasted Swiss-Webster male mice weighing 20-30 g are equally divided into three groups for each drug dose to be tested. That is, data for each dose level was generated by three separate groups of three mice each. A minimum of three dose levels (10, 30, and 100 mg/kg) are tested for each drug. Treatments are administered intraperitoneally one hour prior to testing. All dosages are calculated as parent compound and given in volumes of 10 ml/kg. Compounds are dissolved or suspended in 0.2% Methocel. Control animals are injected with Methocel. Testing: A two part testing procedure is started one hour postinjection. First, the screen test (ST) is performed (see Pharmac. Biochem. Behav. 6, 351-353, 1977). Briefly this test consists of placing mice on individual wire screens which are then rotated 180 degrees at the start of a 60 second observation period. The number of mice falling off the inverted screen is recorded. Data: The data obtained from the screen test are expressed as percent of mice falling off the screen. Data derived from locomotor activity of drug treated mice are compared to the activity of vehicle treated animals and are expressed as percent inhibition of spontaneous locomotion. All percentages reported for inhibition of locomotion (LI) are based upon data accumulated for one hour. Both phases of testing are graded: A=60-100%; C=31-59%; and N=0-30%. An overall dose rating is obtained by the following criteria: […]
# adenosine A1 receptor = biological target: T1, adenosine A1 receptor (Rattus norvegicus, UniProt P25099); experiment: Adenosine A1 receptor binding (RBA-1), displacement of [3H]-CHA
# T1 construct: Whole brain minus cerebellum and brainstem from male Long Evans rats (150-200 g) was homogenized; from tissue; host or cells: rat whole brain minus cerebellum and brainstem, male Long Evans
# T1 sequence (P25099 1-326): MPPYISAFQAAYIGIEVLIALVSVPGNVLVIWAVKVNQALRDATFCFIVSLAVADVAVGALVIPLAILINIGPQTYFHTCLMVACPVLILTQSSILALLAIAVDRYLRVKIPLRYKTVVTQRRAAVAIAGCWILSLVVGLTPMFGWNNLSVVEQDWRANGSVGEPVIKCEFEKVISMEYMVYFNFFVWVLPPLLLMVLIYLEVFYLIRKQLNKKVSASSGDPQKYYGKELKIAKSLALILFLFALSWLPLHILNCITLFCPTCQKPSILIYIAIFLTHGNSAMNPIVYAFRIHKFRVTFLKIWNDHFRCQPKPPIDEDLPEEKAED
# Description: Whole brain minus cerebellum and brainstem from male Long Evans rats (150-200 g) was homogenized in 30 volumes of ice-cold 0.05M Tris-HCl buffer pH 7.7 using a Brinkman Polytron PT-10, (setting number 6 for 20 seconds) and centrifuged for ten minutes at 20,000×g (Sorvall RC-2), 4° C. The supernatant was discarded, and the pellet was resuspended and centrifuged as before. The pellet was resuspended in 20 ml Tris-HCl buffer containing two International Units/ml of adenosine deaminase (Sigma type III from calf intestinal mucosa), incubated at 37° C. for 30 minutes, then subsequently at 0° C. for ten minutes. The homogenate was again centrifuged, and the final pellet was resuspended in ice-cold 0.05M Tris-HCl buffer pH 7.7 to a concentration of 20 mg/ml original wet tissue weight and used immediately.
# Tissue homogenate (10 mg/ml) was incubated in 0.05M Tris-HCl buffer pH 7.7 containing 1.0 nM [^3 H]-N^6 -cyclohexyladenosine [^3 H]-CHA) with or without test agents in triplicate for one hour at 25° C. Incubation volume was 2 ml. Unbound [^3 H]-CHA was separated by rapid filtration under reduced pressure through Whatman glass fiber (GF/B) filters. The filters were rinsed three times with 5 ml of ice cold 0.05M Tris-HCl buffer pH 7.7. The radio-labeled ligand retained on the filter was measured by liquid scintillation spectrophotometry after shaking the filters for one hour or longer on a mechanical shaker in 10 ml of Beckman Ready-Solv HP scintillation cocktail.
# Nonspecific binding was defined as the binding which occurred in the presence of 1 mM theophylline. […] The Scatchard plot was calculated by linear regression of the line obtained by plotting the amount of radioligand bound (pmoles/gram of tissue) versus [formula] Since the amount of radioligand bound was a small fraction of the total amount added, free radioligand was defined as the concentration (nM) of radioligand added to the incubation mixture. The Hill coefficient was calculated by linear regression of the line obtained by plotting the log of the bound radioligand vs the log of the [formula] The maximal number of binding sites (Bmax) was calculated from the Scatchard plot.
# Swiss-Webster male mice [2] = experiment: Mouse Activity and Screen Test (MAST): inhibition of spontaneous locomotor activity; assay type: in vivo; settings: 1 hour prior to testing
# Description: Nine unfasted Swiss-Webster male mice weighing 20-30 g are equally divided into three groups for each drug dose to be tested. That is, data for each dose level was generated by three separate groups of three mice each. A minimum of three dose levels (10, 30, and 100 mg/kg) are tested for each drug. Treatments are administered intraperitoneally one hour prior to testing. All dosages are calculated as parent compound and given in volumes of 10 ml/kg. Compounds are dissolved or suspended in 0.2% Methocel. Control animals are injected with Methocel. Immediately following the screen test, the final phase of testing is initiated by placing each group of three mice in one actophotometer (Life Sciences, 22, 1067-1076, 1978). The actophotometer consists of a cylindrical chamber whose center is occupied by another cylinder which contains the illumination for six photocells located on the perimeter of the chamber. Six light-beam interruptions equal one count. Locomotor activity is recorded by computer at ten minute intervals for 60 minutes. Data: The data obtained from the screen test are expressed as percent of mice falling off the screen. Data derived from locomotor activity of drug treated mice are compared to the activity of vehicle treated animals and are expressed as percent inhibition of spontaneous locomotion. All percentages reported for inhibition of locomotion (LI) are based upon data accumulated for one hour. Both phases of testing are graded: A=60-100%; C=31-59%; and N=0-30%. An overall dose rating is obtained by the following criteria: […]
# adenosine A2 receptor = biological target: T2, adenosine A2 receptor (Rattus norvegicus, UniProt P30543); experiment: Adenosine A2 receptor binding (RBA-2), displacement of [3H]NECA
# T2 construct: Brains were thawed and then kept on ice while the striata were dissected out; tissue Pel-Freez (Rogers, Ark.); host or cells: rat striatum (Sprague-Dawley brains; Long-Evans gave essentially identical results)
# Description: Brains from 200-500 g mixed sex Sprague-Dawley rats were purchased from Pel-Freez (Rogers, Ark.). […] Brains were thawed and then kept on ice while the striata were dissected out. […] The suspension was centrifuged at 50,000 xg for ten minutes, the supernatant discarded, the pellet resuspended in 10 vol ice-cold Tris as above, recentrifuged, resuspended at 1 g/5 ml, and stored in plastic vials at -70° C. […] When needed, tissue was thawed at room temperature, disrupted in a Polytron, and kept on ice until used.
# All incubations were for 60 minutes at 25° C. in 12×75 mm glass tubes containing 1 ml Tris with 5 mg original tissue weight of rat weight of rat striatal membranes, 4 nM [^3 H]-N-ethyl adenosine-5'-carboxamide ([^3 H]NECA), 50 nM N^6 -cyclopentyladenosine (to eliminate A1 receptor binding), 10 mM MgCl2, 0.1 units/ml of adenosine deaminase and 1% dimethylsulfoxide. N^6 -Cyclopentyladenosine was dissolved at 10 mM in 0.02N HCl and diluted in Tris. […] Test compounds were dissolved at 10 mM in dimethylsulfoxide on the same day as the experiment, and diluted in dimethylsulfoxide to 100× the final incubation concentration. […] [^3 H]NECA was diluted to 40 nM in Tris. The membrane suspension (5 mg/0.79 ml) contained sufficient MgCl2 and adenosine deaminase to give 10 mM and 0.1 units/ml, respectively, final concentration in the incubation. […] After all additions, the rack of tubes was vortexed, and the tubes were then incubated for 60 min at 25° C. in a shaking water bath. The rack of tubes was vortexed an additional time halfway through the incubation.
# Incubations were terminated by filtration through 2.4 cm GF/B filters under reduced pressure. Each tube was filtered as follows: the contents of the tube were poured onto the filter, 4 ml of ice-cold Tris were added to the tube and the contents poured onto the filter, and the filter was washed twice with 4 ml of ice-cold Tris. The filtration was complete in about twelve seconds.
# Nonspecific binding was defined as binding in the presence of 100 μM N^6 -cyclopentyladenosine, and specific binding was defined as total binding minus nonspecific binding. The IC50 was calculated by weighted nonlinear least squares curve-fitting to the mass-action equation. [formula] where Y is cpm bound
# T is cpm total binding without drug
# S is cpm specific binding without drug
# D is the concentration of drug and
# K is the IC50 of the drug
# Weighting factors were calculated under the assumption that the standard deviation was proportional to the predicted value of Y. Nonspecific binding was treated as a very large (infinite) concentration of drug in the computer analysis.
# [3] = 1.0 nM [3H]-CHA, rat whole brain minus cerebellum and brainstem, read-out: RBA-1 (IC50, adenosine A1 receptor affinity)
# T2 sequence (P30543 whole entry): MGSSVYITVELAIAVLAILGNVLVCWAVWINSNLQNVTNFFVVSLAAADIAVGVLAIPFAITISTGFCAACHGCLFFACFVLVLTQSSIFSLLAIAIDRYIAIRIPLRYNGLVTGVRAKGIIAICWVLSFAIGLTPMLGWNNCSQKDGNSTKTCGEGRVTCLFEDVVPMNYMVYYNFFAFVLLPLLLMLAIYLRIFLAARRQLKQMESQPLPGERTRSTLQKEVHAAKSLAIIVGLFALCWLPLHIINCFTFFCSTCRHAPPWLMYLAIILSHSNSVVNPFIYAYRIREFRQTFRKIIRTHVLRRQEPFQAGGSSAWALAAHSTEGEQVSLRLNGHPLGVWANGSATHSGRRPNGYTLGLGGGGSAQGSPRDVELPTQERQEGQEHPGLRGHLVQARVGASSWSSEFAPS
Compound,Screen Test Failure (Swiss-Webster male mice [1]; 10 mg/kg i.p.) [%],Screen Test Failure (Swiss-Webster male mice [1]; 30 mg/kg i.p.) [%],Screen Test Failure (Swiss-Webster male mice [1]; 100 mg/kg i.p.) [%],pIC50 (adenosine A1 receptor),Inhibition of Mouse Locomotor Activity (Swiss-Webster male mice [2]; 10 mg/kg i.p.) [%],Inhibition of Mouse Locomotor Activity (Swiss-Webster male mice [2]; 30 mg/kg i.p.) [%],Inhibition of Mouse Locomotor Activity (Swiss-Webster male mice [2]; 100 mg/kg i.p.) [%],pIC50 (adenosine A2 receptor),Screen Test Failure (Swiss-Webster male mice [1]; 3.0 mg/kg i.p.) [%],pIC50 (adenosine A1 receptor; [3]),Inhibition of Mouse Locomotor Activity (Swiss-Webster male mice [2]; 3.0 mg/kg i.p.) [%],"pIC50 (adenosine A2 receptor; 4 nM [3H]NECA, 50 nM N6-cyclopentyladenosine, rat striatal membranes, read-out: RBA-2 (IC50, adenosine A2 receptor affinity))","inhibition at 100 µM (adenosine A2 receptor; at 1 × 10^-4 M, read-out: RBA-2 Inhib) [%]"
"OC[C@H](O)CNc1ncnc2c1ncn2[C@@H]1O[C@H](CO)[C@@H](O)[C@H]1O [Example 2, (R)-N^6-[2,3-Dihydroxypropyl]adenosine]",100,100,100,8.11,100,100,100,4.96,,,,,
"CC1(C)OC[C@H](CNc2ncnc3c2ncn3[C@@H]2O[C@H](CO)[C@@H](O)[C@H]2O)O1 [Example 6, (S)-N^6-[2,3-Dihydroxypropylisopropylidene]adenosine]",0,0,,,47,71,,,0,6.03,26,4.70,
"C[C@H]1O[C@@H](n2cnc3c(NCC4COC(C)(C)O4)ncnc32)[C@H](O)[C@@H]1O (stereo partly drawn) [Example 7, (R,S)-N^6-[2,3-Dihydroxypropyl-isopropylidine]-5'-deoxyadenosine]",0,0,,,18,69,,,11,5.06,13,,23
"CC(C)CC(=O)OCC(CNc1ncnc2c1ncn2[C@@H]1O[C@H](COC(=O)CC(C)C)[C@@H](OC(=O)CC(C)C)[C@H]1OC(=O)CC(C)C)OC(=O)CC(C)C (stereo partly drawn) [Example 11, N-6[2,3-Dihydroxypropyl-2,3-di-O-isovaleroyl]-2',3',5'-tri-O-isovaleroyl adenosine]",55,100,,,91,79,,,22,,59,,

# Reference: US4616003A, “N^6 -dihydroxypropyladenosines” (Warner-Lambert Company, priority 1985, dated 1986)
